Results as given in patent US11279687B2, “Compounds and compositions for the inhibition of NAMPT” (Valo Health, Inc., priority 2010, dated 2022).
Where two headings read alike, the source gives them in different places.

What was measured:
NAMPT = NAMPT (Homo sapiens (Human), UniProt P43490); assay: NAMPT biochemical inhibition assay (NMN quantified by mass spectrometry); details: NAMPT biochemical inhibition; read-out: Biochem IC50
A2780 cells = assay: In-vitro cell proliferation assay (SRB), A2780 cells; assay type: cell-based; details: A2780 cells, 72 hours, SRB, read-out: A2780 IC50;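 further: viable cell number read as SRB absorbance, background from media-only wells subtracted, IC50 interpolated from percent inhibition at two bracketing compound concentrations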

Sequence of NAMPT (P43490 whole entry): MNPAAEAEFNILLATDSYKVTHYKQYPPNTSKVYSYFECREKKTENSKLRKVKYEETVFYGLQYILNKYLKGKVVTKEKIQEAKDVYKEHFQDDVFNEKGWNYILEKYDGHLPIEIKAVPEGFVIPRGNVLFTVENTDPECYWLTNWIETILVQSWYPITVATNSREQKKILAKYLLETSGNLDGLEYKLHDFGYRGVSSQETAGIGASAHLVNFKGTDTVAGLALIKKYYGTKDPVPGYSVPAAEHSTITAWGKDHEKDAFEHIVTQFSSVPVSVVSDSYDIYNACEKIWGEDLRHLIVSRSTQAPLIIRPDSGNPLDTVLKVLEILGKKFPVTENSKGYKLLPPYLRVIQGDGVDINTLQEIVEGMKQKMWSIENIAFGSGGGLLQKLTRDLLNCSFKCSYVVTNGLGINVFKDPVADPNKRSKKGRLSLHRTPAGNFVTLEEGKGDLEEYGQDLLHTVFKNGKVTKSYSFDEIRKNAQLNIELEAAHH

Row | Compound | IC50 (NAMPT) [nM] | IC50 (A2780 cells; Homo sapiens, A2780, 72 h) [nM] | IC50 (A2780 cells) [nM]
1 | CCS(=O)(=O)c1cccc(S(=O)(=O)c2ccc(NC(=O)NCc3cccnc3)cc2)c1 [3-(4-{[3-(ethanesulfonyl)benzene]sulfonyl]phenyl)-1-(pyridin-3-ylmethyl)urea] | 7.6 | 100 to 1000 | –
2 | CCNS(=O)(=O)c1cccc(S(=O)(=O)c2ccc(NC(=O)NCc3cccnc3)cc2)c1 [3-(4-{[3-(ethylsulfamoyl)benzene]sulfonyl}phenyl)-1-(pyridin-3-ylmethyl)urea] | 7.2 | 100 to 1000 | –
3 | COCc1cccc(S(=O)(=O)c2ccc(NC(=O)NCc3cccnc3)cc2)c1 [3-(4-{[3-(methoxymethyl)benzene]sulfonyl}phenyl)-1-(pyridin-3-ylmethyl)urea] | 3.3 | 93.3 | –
4 | CC(C)c1cccc(S(=O)(=O)c2ccc(NC(=O)NCc3cccnc3)cc2)c1 [3-(4-{[3-(propan-2-yl)benzene]sulfonyl}phenyl)-1-(pyridin-3-ylmethyl)urea] | 2 | 38 | –
5 | CC(C)Oc1cccc(S(=O)(=O)c2ccc(NC(=O)NCc3cccnc3)cc2)c1 [3-(4-{[3-(propan-2-yloxy)benzene]sulfonyl}phenyl)-1-(pyridin-3-ylmethyl)urea] | 4 | 79 | –
6 | CCCS(=O)(=O)Nc1cccc(S(=O)(=O)c2ccc(NC(=O)NCc3cccnc3)cc2)c1 [3-(4-{[3-(propane-1-sulfonamido)benzene]sulfonyl}phenyl)-1-(pyridin-3-ylmethyl)urea] | 1.6 | 86 | –
7 | O=C(NCc1cccnc1)Nc1ccc(S(=O)(=O)Nc2ccc(N3CCOCC3)c(Cl)c2)cc1 [3-(4-{[3-chloro-4-(morpholin-4-yl)phenyl]sulfamoyl}phenyl)-1-(pyridin-3-ylmethyl)urea] | 1 | 24 | –
8 | O=C(NCc1cccnc1)Nc1ccc(S(=O)(=O)c2ccc(C(F)(F)F)c(Cl)c2)cc1 [3-(4-{[3-chloro-4-(trifluoromethyl)benzene]sulfonyl}phenyl)-1-(pyridin-3-ylmethyl)urea] | 4 | 100 to 1000 | –
9 | O=C(NCc1cccnc1)Nc1ccc(S(=O)(=O)c2cc(Cl)cc(C(F)(F)F)c2)cc1 [3-(4-{[3-chloro-5-(trifluoromethyl)benzene]sulfonyl}phenyl)-1-(pyridin-3-ylmethyl)urea] | 1.3 | 25.5 | –
10 | O=C(NCc1cccnc1)Nc1ccc(S(=O)(=O)c2ccc(OCC(F)(F)F)c(F)c2)cc1 [3-(4-{[3-fluoro-4-(2,2,2-trifluoroethoxy)benzene]sulfonyl}phenyl)-1-(pyridin-3-ylmethyl)urea] | 2.2 | 100 to 1000 | –
11 | O=C(NCc1cccnc1)Nc1ccc(S(=O)(=O)c2ccc(OC(F)(F)F)c(F)c2)cc1 [3-(4-{[3-fluoro-4-(trifluoromethoxy)benzene]sulfonyl}phenyl)-1-(pyridin-3-ylmethyl)urea] | 5.5 | 100 to 1000 | –
12 | O=C(NCc1cccnc1)Nc1ccc(S(=O)(=O)c2ccc(C(F)(F)F)c(F)c2)cc1 [3-(4-{[3-fluoro-4-(trifluoromethyl)benzene]sulfonyl}phenyl)-1-(pyridin-3-ylmethyl)urea] | 4.1 | 100 to 1000 | –
13 | O=C(NCc1cccnc1)Nc1ccc(S(=O)(=O)c2cc(F)cc(OCC(F)(F)F)c2)cc1 [3-(4-{[3-fluoro-5-(2,2,2-trifluoroethoxy)benzene]sulfonyl]phenyl)-1-(pyridin-3-ylmethyl)urea] | 1.1 | – | 29.7
14 | CC(C)COc1cc(F)cc(S(=O)(=O)c2ccc(NC(=O)NCc3cccnc3)cc2)c1 [3-(4-{[3-fluoro-5-(2-methylpropoxy)benzene]sulfonyl}phenyl)-1-(pyridin-3-ylmethyl)urea] | 4 | 56.4 | –
15 | O=C(NCc1cccnc1)Nc1ccc(S(=O)(=O)c2cc(F)cc(C(F)(F)F)c2)cc1 [3-(4-{[3-fluoro-5-(trifluoromethyl)benzene]sulfonyl[phenyl)-1-(pyridin-3-ylmethyl)urea] | 0.7 | – | 57.6
16 | Cc1cc(NS(=O)(=O)c2ccc(NC(=O)NCc3cccnc3)cc2)ccc1C(C)C [3-(4-{[3-methyl-4-(propan-2-yl)phenyl]sulfamoyl}phenyl)-1-(pyridin-3-ylmethyl)urea] | 2 | 108 | –
17 | CCOCc1ccc(S(=O)(=O)c2ccc(NC(=O)NCc3cccnc3)cc2)cc1 [3-(4-{[4-(ethoxymethyl)benzene]sulfonyl[phenyl)-1-(pyridin-3-ylmethyl)urea] | 1 | 100 to 1000 | –
18 | CC(C)c1ccc(S(=O)(=O)c2ccc(NC(=O)NCc3cccnc3)cc2)cc1 [3-(4-{[4-(propan-2-yl)benzene]sulfonyl[phenyl)-1-(pyridin-3-ylmethyl)urea] | 3 | 100 to 1000 | –
19 | CC(C)Oc1ccc(S(=O)(=O)c2ccc(NC(=O)NCc3cccnc3)cc2)cc1 [3-(4-{[4-(propan-2-yloxy)benzene]sulfonyl[phenyl)-1-(pyridin-3-ylmethyl)urea] | 1.7 | 29.1 | –
20 | O=C(NCc1cccnc1)Nc1ccc(S(=O)(=O)Nc2ccc(Cl)cc2OC(F)(F)F)cc1 [3-(4-{[4-chloro-2-(trifluoromethoxy)phenyl]sulfamoyl[phenyl)-1-(pyridin-3-ylmethyl)urea] | 6 | – | 113

Row | Compound | IC50 (NAMPT) [nM] | IC50 (A2780 cells; Homo sapiens, A2780, 72 h) [nM] | IC50 (A2780 cells) [nM]
21 | O=C(NCc1cccnc1)Nc1ccc(S(=O)(=O)c2ccc(Cl)c(C(F)(F)F)c2)cc1 [3-(4-{[4-chloro-3-(trifluoromethyl)benzene]sulfonyl}phenyl)-1-(pyridin-3-ylmethyl)urea] | 5 | 167 | –
22 | O=C(NCc1cccnc1)Nc1ccc(S(=O)(=O)c2ccc(F)c(OCC(F)(F)F)c2)cc1 [3-(4-{[4-fluoro-3-(2,2,2-trifluoroethoxy)benzene]sulfonyl[phenyl)-1-(pyridin-3-ylmethyl)urea] | 2.1 | – | 23.4
23 | O=C(NCc1cccnc1)Nc1ccc(S(=O)(=O)c2ccc(F)c(C(F)(F)F)c2)cc1 [3-(4-{[4-fluoro-3-(trifluoromethyl)benzene]sulfonyl[phenyl)-1-(pyridin-3-ylmethyl)urea] | 1.5 | – | 86.2
24 | Cc1ccc(NS(=O)(=O)c2ccc(NC(=O)NCc3cccnc3)cc2)cc1C(F)(F)F [3-(4-{[4-methyl-3-(trifluoromethyl)phenyl]sulfamoyl[phenyl)-1-(pyridin-3-ylmethyl)urea] | 2 | – | 179
25 | O=C(NCc1cccnc1)Nc1ccc(S(=O)(=O)NCc2ccccc2Cl)cc1 [3-(4-{[(2-chlorophenyl)methyl]sulfamoyl}phenyl)-1-(pyridin-3-ylmethyl)urea] | 3 | 201 | –
26 | COc1ccccc1CNS(=O)(=O)c1ccc(NC(=O)NCc2cccnc2)cc1 [3-(4-{[(2-methoxyphenyl)methyl]sulfamoyl}phenyl)-1-(pyridin-3-ylmethyl)urea] | 8 | 97 | –
27 | CN(Cc1cccc(F)c1)S(=O)(=O)c1ccc(NC(=O)NCc2cccnc2)cc1 [3-(4-{[(3-fluorophenyl)methyl](methyl)sulfamoyl}phenyl)-1-(pyridin-3-ylmethyl)urea] | 2 | 156 | –
28 | CN(Cc1ccc(Cl)cc1)S(=O)(=O)c1ccc(NC(=O)NCc2cccnc2)cc1 [3-(4-{[(4-chlorophenyl)methyl](methyl)sulfamoyl}phenyl)-1-(pyridin-3-ylmethyl)urea] | 2 | 484 | –
29 | COc1ccc(CNS(=O)(=O)c2ccc(NC(=O)NCc3cccnc3)cc2)cc1 [3-(4-{[(4-methoxyphenyl)methyl]sulfamoyl}phenyl)-1-(pyridin-3-ylmethyl)urea] | 16 | 507 | –
30 | CCc1ccc(CN(C)S(=O)(=O)c2ccc(NC(=O)NCc3cccnc3)cc2)nc1 [3-(4-{[(5-ethylpyridin-2-yl)methyl](methyl)sulfamoyl}phenyl)-1-(pyridin-3-ylmethyl)urea] | 5 | 134 | –
31 | C[C@@H](c1ccccc1)N(C)S(=O)(=O)c1ccc(NC(=O)NCc2cccnc2)cc1 [3-(4-{methyl[(1S)-1-phenylethyl]sulfamoyl}phenyl)-1-(pyridin-3-ylmethyl)urea] | 1 | 8 | –
32 | O=C(NCc1cccnc1)Nc1ccc(S(=O)(=O)Nc2ccccc2-n2cccc2)cc1 [3-(pyridin-3-ylmethyl)-1-(4-{[2-(1H-pyrrol-1-yl)phenyl]sulfamoyl}phenyl)urea] | 3 | 76 | –
33 | O=C(NCc1cccnc1)Nc1ccc(S(=O)(=O)Nc2ccccc2N2CCCC2)cc1 [3-(pyridin-3-ylmethyl)-1-(4-{[2-(pyrrolidin-1-yl)phenyl]sulfamoyl}phenyl)urea] | 13 | 11 | –
34 | O=C(NCc1cccnc1)Nc1ccc(S(=O)(=O)N2CCc3ncccc3C2)cc1 [3-(pyridin-3-ylmethyl)-1-[4-(5,6,7,8-tetrahydro-1,6-naphthyridine-6-sulfonyl)phenyl]urea] | 16 | 111 | –
35 | O=C(NCc1cccnc1)Nc1ccc(S(=O)(=O)c2cccnc2)cc1 [3-(pyridin-3-ylmethyl)-1-[4-(pyridine-3-sulfonyl)phenyl]urea] | 5 | 595 | –
36 | O=C(NCc1cccnc1)Nc1ccc(S(=O)(=O)c2ccncc2)cc1 [3-(pyridin-3-ylmethyl)-1-[4-(pyridine-4-sulfonyl)phenyl]urea] | 11 | 488 | –
37 | O=C(NCc1cccnc1)Nc1ccc(S(=O)(=O)c2cncnc2)cc1 [3-(pyridin-3-ylmethyl)-1-[4-(pyrimidine-5-sulfonyl)phenyl]urea] | 20 | 871 | –
38 | O=C(NCc1cccnc1)Nc1ccc(S(=O)(=O)c2cnc3ccccc3c2)cc1 [3-(pyridin-3-ylmethyl)-1-[4-(quinoline-3-sulfonyl)phenyl]urea] | 2.8 | 28 | –
39 | O=C(NCc1cccnc1)Nc1ccc(S(=O)(=O)c2ccc3ncccc3c2)cc1 [3-(pyridin-3-ylmethyl)-1-[4-(quinoline-6-sulfonyl)phenyl]urea] | 2.7 | 44.1 | –
40 | O=C(NCc1cccnc1)Nc1ccc(S(=O)(=O)c2cccc3cccnc23)cc1 [3-(pyridin-3-ylmethyl)-1-[4-(quinoline-8-sulfonyl)phenyl]urea] | 1.4 | 2.2 | –
